Experimental data taken from the supplement of paper PMC11451515.

Legend:
Conditions in all cases: 48 h
NOMO1 [1] = test: cell viability relative to DMSO control; higher = less cytotoxic
Procedure, shortened: (§1)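 Library compounds in DMSO were pin-dosed into 1536-well plates (5 μl) holding NOMO1 or SEM (500 cells/well) or P12-Ichikawa (1000 cells/well) leukemia cells, across an 11-point threefold series of 47 μM to 0.79 nM. Each cell line had been adapted for at least four passages in each medium. CellTiter-Glo One luminescence was read after 48 h at 37°C. Viability is the per-plate percentage relative to DMSO wells, with cell-free wells as background.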

P12-Ichikawa [2] = test: as above
Procedure, shortened: as §1

SEM cells [3] = test: as above
Procedure, shortened: as §1

NOMO1 [4] = test: AUC of viability dose-response curve (% viability x log10 dose units); higher = less sensitive
Procedure, shortened: (§2)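 Viability of medium-adapted leukemia cells was measured by CellTiter-Glo One luminescence after 48 h at 37°C with library compounds in DMSO. Doses were 11 threefold steps from 47 μM to 0.79 nM, in 1536-well plates at 500 or 1000 cells/well. Signals were normalised per plate to DMSO and cell-free wells and fitted with a four-parameter log-logistic model on log10 dose. Area under the curve was integrated by trapezoidal rule, with curves exceeding full viability scaled and failed quality-control curves removed.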

P12-Ichikawa [5] = test: as above
Procedure, shortened: as §2

SEM cells [6] = test: as above
Procedure, shortened: as §2

CC1(C)O[C@@H]2C[C@H]3[C@@H]4CCC5=CC(=O)C=C[C@]5(C)[C@H]4[C@@H](O)C[C@]3(C)[C@]2(C(=O)CO)O1
cell viability [%]
Conditions | NOMO1 [1] | P12-Ichikawa [2] | SEM cells [3]
HPLM + 10% dialyzed FBS, 0.000781 µM | 95 | 100 | 74.9
HPLM + 10% dialyzed FBS, 0.00234 µM | 92.4 | 104 | 34.7
HPLM + 10% dialyzed FBS, 0.00702 µM | 104 | 106 | 89.1
HPLM + 10% dialyzed FBS, 0.0211 µM | 90.7 | 91.8 | 77
HPLM + 10% dialyzed FBS, 0.0632 µM | 119 | 93 | 72.8
HPLM + 10% dialyzed FBS, 0.19 µM | 108 | 90.2 | 73.6
HPLM + 10% dialyzed FBS, 0.569 µM | 117 | 70.7 | 66.3
HPLM + 10% dialyzed FBS, 1.71 µM | 98.5 | 64 | 57.7
HPLM + 10% dialyzed FBS, 5.12 µM | 95.2 | 66 | 60.3
HPLM + 10% dialyzed FBS, 15.4 µM | 91.9 | 65.2 | 60.3
HPLM + 10% dialyzed FBS, 46.1 µM | 101 | 62.9 | 53.6
RPMI 5 mM glucose + 10% FBS, 0.000781 µM | 87.2 | 90.3 | 99.8
RPMI 5 mM glucose + 10% FBS, 0.00234 µM | 92.5 | 100 | 39.1
RPMI 5 mM glucose + 10% FBS, 0.00702 µM | 90.4 | 107 | 96.1
RPMI 5 mM glucose + 10% FBS, 0.0211 µM | 88.7 | 106 | 95.7
RPMI 5 mM glucose + 10% FBS, 0.0632 µM | 97.4 | 82.4 | 89.1
RPMI 5 mM glucose + 10% FBS, 0.19 µM | 110 | 76.3 | 83.2
RPMI 5 mM glucose + 10% FBS, 0.569 µM | 88.7 | 59.2 | 67.5
RPMI 5 mM glucose + 10% FBS, 1.71 µM | 92.5 | 53 | 61.8
RPMI 5 mM glucose + 10% FBS, 5.12 µM | 98.5 | 52 | 65.2
RPMI 5 mM glucose + 10% FBS, 15.4 µM | 87.8 | 50.4 | 58.4
RPMI 5 mM glucose + 10% FBS, 46.1 µM | 93.6 | 51.5 | 55.4
RPMI 5 mM glucose + 10% dialyzed FBS, 0.000781 µM | 96.7 | 90.2 | 79.7
RPMI 5 mM glucose + 10% dialyzed FBS, 0.00234 µM | 91.4 | 98.8 | 37.8
RPMI 5 mM glucose + 10% dialyzed FBS, 0.00702 µM | 90.9 | 97.8 | 82.4
RPMI 5 mM glucose + 10% dialyzed FBS, 0.0211 µM | 90.4 | 92.4 | 81.8
RPMI 5 mM glucose + 10% dialyzed FBS, 0.0632 µM | 94.2 | 76.6 | 80
RPMI 5 mM glucose + 10% dialyzed FBS, 0.19 µM | 92.9 | 72.8 | 88.1
RPMI 5 mM glucose + 10% dialyzed FBS, 0.569 µM | 106 | 56.6 | 68.4
RPMI 5 mM glucose + 10% dialyzed FBS, 1.71 µM | 109 | 49.8 | 51.9
RPMI 5 mM glucose + 10% dialyzed FBS, 5.12 µM | 104 | 45.4 | 53.9
RPMI 5 mM glucose + 10% dialyzed FBS, 15.4 µM | 85.6 | 40.9 | 49.8
RPMI 5 mM glucose + 10% dialyzed FBS, 46.1 µM | 103 | 42.1 | 53.4

AUC of viability dose-response curve
Conditions | NOMO1 [4] | P12-Ichikawa [5] | SEM cells [6]
HPLM + 10% dialyzed FBS | 474 | 391 | 313
RPMI 5 mM glucose + 10% FBS | 445 | 357 | 353
RPMI 5 mM glucose + 10% dialyzed FBS | 454 | 331 | 318
